Experimental data: patent publication US6673607B2, “Microinjection of cryoprotectants for preservation of cells” (priority 2000, dated 2004)

Columns and labels:
[1] = system: metaphase II mouse oocytes; assay: survival of cooled oocytes after overnight culture in modified HTF media, isotonic (live/dead assay); format: cell-based; conditions: 0.50 M extracellular trehalose only; very slow cooling to −60° C.
Description: (§1) Once the cell is prepared for storage, it is stored in a manner appropriate to its preparation. Frozen cells can be stored at cryogenic temperatures and dried cells can be dry stored at ambient or other temperatures as appropriate. Recovery of stored cells is geared to the method of their preparation for storage. Dried cells are rehydrated, and frozen cells are thawed. Preferably, at least 25, 35, 50, 60, 70, 80, 90, 95, or 100% of the recovered cells are viable. Cell viability may be measured using any standard assay, such as a “live/dead” assay using the green dye calcein-AM to indicate viable cells and the red dye ethidium homodimer to indicate dead cells, according to the manufacturer's protocol (Molecular Probes, Inc.). In another preferred embodiment, at least 5, 10, 15, 25, 35, 50, 60, 70, 80, 90, or 95% of the recovered oocytes may be fertilized using standard in vitro fertilization techniques (see, for example, Summers et al., Biol. Reprod. 53:431-437, 1995). Preferably, the fertilized oocytes develop into 2-cell stage embryos, 4-cell stage embryos, morula-stage embryos, blastocyst-stage embryos, fetal-stage embryos, or viable offspring.
Cell survival was measured using the live/dead assay. […] In FIG. 10, oocytes were cooled at a very slow cooling rate to an intermediate temperature (−60° C.). […]

[2] = cited from earlier work; for temperature at which Tm and Tg curves cross (Tg′): phase diagram, FIG. 6; for Tg′: α-(1→4)-linked glucose hexamers, Levine and Slade
[3] = system: metaphase II mouse oocytes; assay: fertilization and blastocyst development of fresh oocytes cultured in modified HTF media; format: cell-based
Description: Thus, a hypertonic media for the culturing of certain recovered cells was developed using a two-prong approach. First, a standard culture medium called HTF (human tubal fluid medium) was modified to minimize the concentration of electrolytes (see FIG. 7, components marked with down arrows) and to increase other nutrients and amino acids (see FIG. 7, components marked with up arrows). The osmolarity of this medium was determined using an osmometer. Because the osmolarity of this medium was approximately 285 mosm, which is close to the normal internal osmolarity of cells, this medium is called modified HTF, isotonic. Second, the water content of the medium was reduced to equally increase the concentrations of each component to achieve a final osmolarity of 320 mosm. This medium is called modified HTF, hypertonic, (see FIG. 7, last column).
To test the ability of modified HTF, isotonic and hypertonic media to support the fertilization and development of oocytes, these medias were used to culture fresh mouse metaphase II oocytes that had not been cyropreserved. […] If desired, the composition and hypertonicity of the culture medium may be further optimized to increase the number of blastocysts or viable offspring that are formed. For example, a culture medium having a higher osmolarity (such as 330, 340, 350, 360, 370, or 380 mosm) may better mimic oviductal fluid (which may have an osmolarity of at least 360 mosm) and thus further promote development of viable offspring (Van Winkle et al., J. Expt Zool. 253:215-219, 1990). Any other suitable hypertonic media with a osmolarity of at least 300, 310, 320, 330, 340, 350, 360, 370, 380, or more mosm may be used in preferred methods for culturing cells in vitro. These methods may be used to culture cells with or without intracellular sugar. These preferred medias may also be used before, during, or after storage of cryopreserved cells.

[4] = system: metaphase II mouse oocytes; assay: survival of cooled oocytes after overnight culture in modified HTF, hypertonic media (live/dead assay); format: cell-based
Description: as §1
FIGS. 9A and 9B are a set of graphs showing the survival of cooled metaphase II mouse oocytes after overnight culture in modified HTF, hypertonic media as a function of extracellular trehalose concentration at −15° and −30°, respectively. These experiments were performed using a cooling rate of 1° C./min, with or without approximately 0.10 to 0.15 M intracellular trehalose. Cell viability was assessed using the live/dead assay described herein. […] As the extracellular amount of trehalose in the freezing solution was increased from 0.15 M (approximately the same amount as the intracellular trehalose) to 0.30 M or 0.50 M, the survival rate improved from about 18, to 55 or 85%, respectively.

oocytes = assay: cryomicroscopy: cumulative incidence of intracellular ice during cooling; format: cell-based; conditions: cooling 3.5° C./min
Description: FIG. 13 is a graph with a set of curves showing the percentage of oocytes that have intracellular ice at various temperatures. For this assay, standard cryomicroscopy procedures were used to cool oocytes at a rate of 3.5° C./min (Cosman et al., Cryo-Letters 10:17-38, 1989). The oocytes were observed using a cryomicroscope to determine whether intracellular ice had formed. The presence of intracellular ice was easily detected based on the black color that appeared due to the light scattered by the ice crystals. This assay was used to test control oocytes incubated in isotonic media alone, oocytes incubated in media with 0.1 M extracellular trehalose, and oocytes injected with 0.1 M trehalose and incubated in media with 0.1 M extracellular trehalose. […] In the field of cryobiology, it has been established that the faster the cooling rate without formation of lethal intracellular ice, the greater the chance of cell survival.

[5] = oocytes injected with 0.07 M trehalose, modified HTF, hypertonic media

OC[C@H]1O[C@H](O[C@H]2O[C@H](CO)[C@@H](O)[C@H](O)[C@H]2O)[C@H](O)[C@@H](O)[C@@H]1O [trehalose]
survival rate [1]: some improvement over the control
temperature at which Tm and Tg curves cross (Tg′) [2]: approximately −30 °C
frequency of blastocyst formation ([3]; intracellular trehalose 0.15 M): reduced, but still significant
frequency of fertilization ([3]; intracellular trehalose 0.15 M): reduced, but still significant
frequency of blastocyst development [3, 5]: high frequency
frequency of fertilization [3, 5]: high frequency
survival rate ([4]; 0.15 M extracellular trehalose in freezing solution, with approximately 0.10 to 0.15 M intracellular trehalose, cooling 1° C./min): about 18%
survival rate ([4]; 0.30 M extracellular trehalose in freezing solution, with approximately 0.10 to 0.15 M intracellular trehalose, cooling 1° C./min): ~55%
survival rate ([4]; 0.50 M extracellular trehalose in freezing solution, with approximately 0.10 to 0.15 M intracellular trehalose, cooling 1° C./min): ~85%
survival rate ([4]; cooled to −15° C. at 1° C./min, approximately 0.10 to 0.15 M intracellular trehalose versus none): dramatically increased
survival rate ([4]; cooled to −30° C. at 1° C./min, approximately 0.10 to 0.15 M intracellular trehalose versus none): dramatically increased
incidence of intracellular ice formation (oocytes; 0.1 M extracellular trehalose versus isotonic media alone): reduced
frequency of intracellular ice (oocytes; 0.1 M injected trehalose plus 0.1 M extracellular trehalose): further reduced

cyclodextrin
Tg′ [2]: −9 °C

C[S+](C)[O-] [DMSO, dimethyl sulfoxide]
temperature at which Tm and Tg curves cross (Tg′) [2]: approximately −80 °C

maltohexaose
Tg′ [2]: −14.5 °C
